Test results as given in paper PMC6151437, “Antibacterial Synthetic Peptides Derived from Bovine Lactoferricin Exhibit Cytotoxic Effect against MDA-MB-468 and MDA-MB-231 Breast Cancer Cell Lines” (Molecules : A Journal of Synthetic Chemistry and Natural …, 2017).
Read-outs that look alike come from different tables or passages of the source. Bridge positions count the residues as written; N and C are the ends. Square brackets hold non-standard residues; d marks the D form. Ends that are not written are not given here. Peptide text beside a SMILES is read from it. I, II: the chains in the order shown. Ahx = NCCCCCC(=O)O

Columns and labels:
[1] = type: cell-based, human; details: human
Experimental: (§1) Cytotoxicity assays were performed as previously described. Briefly, breast cancer cell lines (100 µL; 2.5 × 10^3 cells/well) were seeded in 96-well flat bottom tissue culture treated plates and were incubated at 37 °C in a 10% CO2 humidified atmosphere for 24 h, allowing for cell adhesion. Then the media was removed, then 100 µL of FBS (5%) and 100 µL of peptide were added. The peptide final concentration was ranging from 200 to 6.25 µg/mL and the final FBS concentration was 2.5%. Plates were incubated 2 h at 37 °C in a 10% CO2 humidified atmosphere (physiologic pH). Negative controls included medium and water. All controls were prepared in triplicate. Cell viability was determined using the MTT assay after 2 h. For this, 10 µL of MTT solution (5 mg/mL) was added to each well, and the plates were incubated for 2 h at 37 °C. Formazan crystals were clarified by centrifugation, the supernatant was discarded, and the crystals were dissolved in DMSO (100 µL). Absorbance (570 nm) was registered on a Bio-Rad 680 microplate reader. (n = 3).

[2] = system: E. coli ATCC 11775; type: cell-based
Experimental: (§2) The minimal inhibitory concentration (MIC) was determined using a microdilution assay. In brief, bacterial strains were incubated for 18 to 24 h at 37 °C in an Muller Hinton broth (MHB) until an optical density of 0.15 to 0.30 (620 nm) was obtained. 90 µL of MHB was mixed with 90 µL of peptide (440 µg/mL), and using a 96-well microtiter plate peptide, serial dilution (200, 100, 50, 25, 12.5, and 6.2 µg/mL) was performed. 10 µL of inoculum (2 × 10^6 CFU/mL) was added to each well. Final volume in each well was 100 µL. Then they were incubated for 24 h at 37 °C, and the absorbance at 620 nm was measured using an Asys Expert Plus ELISA reader. For determining the minimum bactericidal concentration (MBC), a small sample was taken from each well using an inoculation loop, which was then spread on MHA plates and incubated overnight at 37 °C. […] Each of these tests was performed twice (n = 2).

[3] = system: E. coli ATCC 25922; type: cell-based
Experimental: as §2

[4] = type: cell-based, human; details: human; remark: listed apart in the source
Experimental: as §1

[5] = system: human gastric cancer cell line AGS; details: cited from earlier work
[6] = E. coli ATCC 11775, microdilution in MHB, 24 h at 37 °C, absorbance 620 nm, n = 2
[7] = E. coli ATCC 11775, plated on MHA overnight at 37 °C, no bacterial growth, n = 2
[8] = E. coli ATCC 25922, microdilution in MHB, 24 h at 37 °C, absorbance 620 nm, n = 2
[9] = E. coli ATCC 25922, plated on MHA overnight at 37 °C, no bacterial growth, n = 2

| IC50 at 2 h [1] [µM] | Antibacterial Effect MIC ([2]; ATCC 11775, 24 h) | Antibacterial Effect MIC ([3]; ATCC 25922, 24 h) | IC50 at 2 h [4] [µM] | Antibacterial Effect MIC [3, 8] [µg/mL] | Antibacterial Effect MIC ([2]; E. coli ATCC 11775, value in parentheses, microdilution in MHB, 24 h at 37 °C, n = 2) [µM] | Molecule | Antibacterial Effect MBC ([2]; ATCC 11775) | Antibacterial Effect MBC ([3]; ATCC 25922) | IC50 [5] [µM] | Antibacterial Effect MIC [2, 6] [µg/mL] | Antibacterial Effect MBC [2, 7] [µg/mL] | Antibacterial Effect MBC [3, 9] [µg/mL] | Antibacterial Effect MBC ([2]; E. coli ATCC 11775, value in parentheses, plated on MHA overnight at 37 °C, n = 2) [µM] | Antibacterial Effect MBC ([3]; E. coli ATCC 25922, value in parentheses, plated on MHA overnight at 37 °C, n = 2) [µM] |
| --- | --- | --- | --- | --- | --- | --- | --- | --- | --- | --- | --- | --- | --- | --- |
| > 102 | > 102 µM | 102 µM | > 102 | – | – | CSCC[C@H](NC(=O)[C@H](CCCNC(=N)N)NC(=O)[C@H](Cc1c[nH]c2ccccc12)NC(=O)[C@H](CCC(N)=O)NC(=O)[C@H](Cc1c[nH]c2ccccc12)NC(=O)[C@H](CCCNC(=N)N)NC(=O)[C@H](CCCNC(=N)N)NC(=O)[C@H](C)NC(=O)[C@H](CCCCN)NC(=O)[C@@H](N)Cc1ccccc1)C(=O)N[C@@H](CCCCN)C(=O)N[C@@H](CCCCN)C(=O)N[C@@H](CC(C)C)C(=O)NCC(=O)N[C@@H](C)C(=O)O [[Ala^19]-LfcinB (17–31)] | 102 µM | 102 µM | – | – | – | – | – | – |
| > 88 | > 88 µM | 88 µM | > 88 | 200 | – | CSCC[C@@H]1NC(=O)[C@H](CCCNC(=N)N)NC(=O)[C@H](Cc2c[nH]c3ccccc23)NC(=O)[C@H](CCC(N)=O)NC(=O)[C@H](Cc2c[nH]c3ccccc23)NC(=O)[C@H](CCCNC(=N)N)NC(=O)[C@H](CCCNC(=N)N)NC(=O)[C@H](C)NC(=O)[C@H](CCCCN)NC(=O)[C@H](Cc2ccccc2)NC(=O)[C@@H](N)CSSC[C@@H](C(N)=O)NC(=O)CCCCCNC(=O)[C@H](C)NC(=O)CNC(=O)[C@H](CC(C)C)NC(=O)[C@H](CCCCN)NC(=O)[C@H](CCCCN)NC1=O [[Ala^19]-LfcinB (17–31)cyc] (H-CFKARRWQWRMKKLGA[Ahx]C-NH2; disulfide 1-18) | > 88 µM | 88 µM | – | > 200 | > 200 | 200 | – | – |
| – | > 48 µM | 24 µM | – | 100 | – | CSCC[C@H](NC(=O)[C@H](CCCNC(=N)N)NC(=O)[C@H](Cc1c[nH]c2ccccc12)NC(=O)[C@H](CCC(N)=O)NC(=O)[C@H](Cc1c[nH]c2ccccc12)NC(=O)[C@H](CCCNC(=N)N)NC(=O)[C@H](CCCNC(=N)N)NC(=O)[C@H](C)NC(=O)[C@H](CCCCN)NC(=O)[C@@H](N)Cc1ccccc1)C(=O)N[C@@H](CCCCN)C(=O)N[C@@H](CCCCN)C(=O)N[C@@H](CC(C)C)C(=O)NCC(=O)N[C@@H](C)C(=O)NCCCC[C@H](NC(=O)[C@H](C)NC(=O)CNC(=O)[C@H](CC(C)C)NC(=O)[C@H](CCCCN)NC(=O)[C@H](CCCCN)NC(=O)[C@H](CCSC)NC(=O)[C@H](CCCNC(=N)N)NC(=O)[C@H](Cc1c[nH]c2ccccc12)NC(=O)[C@H](CCC(N)=O)NC(=O)[C@H](Cc1c[nH]c2ccccc12)NC(=O)[C@H](CCCNC(=N)N)NC(=O)[C@H](CCCNC(=N)N)NC(=O)[C@H](C)NC(=O)[C@H](CCCCN)NC(=O)[C@@H](N)Cc1ccccc1)C(=O)NCCCCCC(N)=O [[Ala^19]-LfcinB (17–31)2] (I: H-FKARRWQWRMKKLGAK[Ahx]-NH2 / II: H-FKARRWQWRMKKLGA; amide I:16-II:C) | > 48 µM | 24 µM | – | > 200 | > 200 | 100 | – | – |

The next lines start with the molecule.

| Molecule | IC50 at 2 h [1] [µM] | Antibacterial Effect MIC ([2]; ATCC 11775, 24 h) | Antibacterial Effect MIC ([3]; ATCC 25922, 24 h) | IC50 at 2 h [4] [µM] | Antibacterial Effect MIC [3, 8] [µg/mL] | Antibacterial Effect MIC ([2]; E. coli ATCC 11775, value in parentheses, microdilution in MHB, 24 h at 37 °C, n = 2) [µM] | Antibacterial Effect MBC ([2]; ATCC 11775) | Antibacterial Effect MBC ([3]; ATCC 25922) | IC50 [5] [µM] | Antibacterial Effect MIC [2, 6] [µg/mL] | Antibacterial Effect MBC [2, 7] [µg/mL] | Antibacterial Effect MBC [3, 9] [µg/mL] | Antibacterial Effect MBC ([2]; E. coli ATCC 11775, value in parentheses, plated on MHA overnight at 37 °C, n = 2) [µM] | Antibacterial Effect MBC ([3]; E. coli ATCC 25922, value in parentheses, plated on MHA overnight at 37 °C, n = 2) [µM] |
| --- | --- | --- | --- | --- | --- | --- | --- | --- | --- | --- | --- | --- | --- | --- |
| RRWQWRMKKLG-NH2 [LfcinB (20–30)] | > 130 | 130 µM | 130 µM | > 130 | – | – | 130 µM | 130 µM | > 500 | – | – | – | – | – |
| I: H-RRWQWRMKKLGK[Ahx]C-NH2 / II: H-RRWQWRMKKLGK[Ahx]C-NH2 / III: H-RRWQWRMKKLG / IV: H-RRWQWRMKKLG (amide I:12-III:C, II:12-IV:C; disulfide I:14-II:14) [LfcinB (20–30)4] | – | 15 µM | 15 µM | – | 200 | – | 15 µM | 15 µM | – | 200 | 200 | 200 | – | – |
| N=C(N)NCCC[C@@H]1NC(=O)[C@H](Cc2c[nH]c3ccccc23)NC(=O)[C@H](CCC(N)=O)NC(=O)[C@H](Cc2c[nH]c3ccccc23)NC(=O)[C@H](CCCNC(=N)N)NC(=O)[C@H](CCCNC(=N)N)NC(=O)[C@@H](N)CSSC[C@@H](C(N)=O)NC(=O)CCCCCNC1=O [LfcinB (20–25)cyc] (H-CRRWQWR[Ahx]C-NH2; disulfide 1-9) | – | – | 77 µM | – | 100 | 153 | – | – | – | – | – | – | 153 | > 153 |
| CSCC[C@H](NC(=O)[C@H](CCCNC(=N)N)NC(=O)[C@H](Cc1c[nH]c2ccccc12)NC(=O)[C@H](CCC(N)=O)NC(=O)[C@H](Cc1c[nH]c2ccccc12)NC(=O)[C@H](CCCNC(=N)N)NC(=O)[C@@H](N)CCCNC(=N)N)C(=O)N[C@@H](CCCCN)C(=O)N[C@@H](CCCCN)C(=O)N[C@@H](CC(C)C)C(=O)NCC(=O)NCCCC[C@H](NC(=O)CNC(=O)[C@H](CC(C)C)NC(=O)[C@H](CCCCN)NC(=O)[C@H](CCCCN)NC(=O)[C@H](CCSC)NC(=O)[C@H](CCCNC(=N)N)NC(=O)[C@H](Cc1c[nH]c2ccccc12)NC(=O)[C@H](CCC(N)=O)NC(=O)[C@H](Cc1c[nH]c2ccccc12)NC(=O)[C@H](CCCNC(=N)N)NC(=O)[C@@H](N)CCCNC(=N)N)C(=O)NCCCCCC(N)=O [LfcinB (20–30)2] (I: H-RRWQWRMKKLGK[Ahx]-NH2 / II: H-RRWQWRMKKLG; amide I:12-II:C) | – | 60 µM | 30 µM | – | 100 | – | 60 µM | 60 µM | – | 200 | 200 | 200 | – | – |
| CSCC[C@@H]1NC(=O)[C@H](CCCNC(=N)N)NC(=O)[C@H](Cc2c[nH]c3ccccc23)NC(=O)[C@H](CCC(N)=O)NC(=O)[C@H](Cc2c[nH]c3ccccc23)NC(=O)[C@H](CCCNC(=N)N)NC(=O)[C@H](CCCNC(=N)N)NC(=O)[C@@H](N)CSSC[C@@H](C(N)=O)NC(=O)CCCCCNC(=O)CNC(=O)[C@H](CC(C)C)NC(=O)[C@H](CCCCN)NC(=O)[C@H](CCCCN)NC1=O [LfcinB (20–30)cyc] (H-CRRWQWRMKKLG[Ahx]C-NH2; disulfide 1-14) | – | 200 µg/mL | 200 µg/mL | – | – | – | 200 µg/mL | 200 µg/mL | – | – | – | – | – | – |
